Measurements: patent US7632815B2, “Use of calmodulin kinase II inhibitors to treat myocardial dysfunction in structural heart disease” (Vanderbilt University, priority 2001, dated 2009)
pIC50: −log10 of the molar value. “Also recorded” adds a separate entry of the source.

Legend:
[1] = system: mice after myocardial infarction surgery; assay: Echocardiography 3 weeks after myocardial infarction surgery; assay type: in vivo, mouse; conditions: for LV internal diameter (LVID) during diastole / LV posterior wall (LVPW) wall thickness in diastole: between groups (KN-93 1 and 10, KN-92 30 μmol/Kg, AC3-I transgenic, WT); for cardiac hypertrophy / myocardial contractility (positive inotropic effect): FIG. 7; for Left ventricular (LV) fractional shortening: unanesthetized mice, vs WT or KN-92 30 μmol/Kg
Description: FIGS. 7 A-D. CaMKII inhibition improves contractile function after myocardial infarction surgery. […] P<0.001 by ANOVA and asterisks indicate a significant difference compared to WT using a Bonferroni-corrected t test. B. LV internal diameter (LVID) during diastole is a marker of LV chamber dilation. […] C. LV posterior wall (LVPW) wall thickness in diastole is a measure of LV hypertrophy of the non-infarcted wall.
Myocardial infarction surgery: Surgery is routinely performed at the Vanderbilt mouse physiology core laboratory and is essentially identical to other published reports^18 8.^14 In brief, mice are anesthetized (pentobarbital 33 μg/g and ketamine 33 μg/g, i.p.) and placed on a rodent respirator (tidal vol. 0.5 ml, rate 120 breaths/min), the chest opened with a left parasternal thoracotomy, and the region of the mid-left anterior descending artery ligated with 8-0 suture. The chest is closed (running 5-0 suture), and the animal weaned from the respirator. Wild-type mice typically develop heart failure, as assessed by increased lung wet:dry weights. Sham operations omit the ligation step. Approximately 75% of animals survive surgery with a successfully infarcted anterior wall.

[2] = system: CaMKII isoforms; conditions: cited from earlier work
[3] = system: CaMKII; assay: CaMKII inhibitory potency against a synthetic CaMKII substrate; assay type: biochemical; conditions: 'previous studies'
[4] = system: protein kinase A; conditions: cited from earlier work
[5] = system: transgenic mice; assay: Baseline echocardiography of transgenic mice; assay type: in vivo, mouse
[6] = system: CaMKII; assay: CaMKII activity assay in heart homogenate with syntide 2; assay type: in vivo, mouse
Method: CaMKII activity assays: CaMKII activity was assayed in AC3-I mice and littermate controls from whole heart (ventricular) homogenate with syntide 2-a synthetic substrate with ˜50 fold selectivity for CaMKII over CaMKIV,^9 using our previously published methods.^1

[7] = system: protein kinase C; conditions: cited from earlier work
[8] = system: CAN+ transgenic mice; assay: Echocardiography in calcineurin (CAN+) transgenic dilated cardiomyopathy model; conditions: AC3-I+/CAN+ vs CAN+ mice
[9] = diastole or systole, AC3-I transgenic vs WT littermates

Molecule: COc1ccc(S(=O)(=O)Nc2ccccc2CN(C)C/C=C/c2ccc(Cl)cc2)cc1 [KN-92]
- LV internal diameter (LVID) during diastole ([1]; 3 weeks after MI surgery): No significant differences
- LV posterior wall (LVPW) wall thickness in diastole ([1]; 3 weeks after MI surgery): No significant differences

Molecule: COc1ccc(S(=O)(=O)N(CCO)c2ccccc2CN(C)C/C=C/c2ccc(Cl)cc2)cc1 [KN-93]
- LV internal diameter (LVID) during diastole ([1]; 3 weeks after MI surgery): No significant differences
- LV posterior wall (LVPW) wall thickness in diastole ([1]; 3 weeks after MI surgery): No significant differences
- cardiac hypertrophy [1]: without affecting
- myocardial contractility (positive inotropic effect) [1]: increase
- Left ventricular (LV) fractional shortening ([1]; KN-93 1 μmol/Kg body weight daily, 3 weeks after MI surgery): significantly greater
- Left ventricular (LV) fractional shortening ([1]; KN-93 10 μmol/Kg body weight daily, 3 weeks after MI surgery): significantly greater

Molecule: KKALHRQEAVDCL [AC3-I]
- inhibition of CaMKII isoforms [2]: inhibits all CaMKII isoforms
- pIC50 [3]: 6.30
- activity against protein kinase A [4]: virtually devoid of activity
- Left ventricular fractional shortening ([5]; baseline, AC3-I transgenic vs WT littermates): not different
- Echocardiographic left ventricular dimensions [5, 9]: not significantly different
- Interventricular septal thickness [5, 9]: not different
- total CaMKII activity ([6]; ventricular homogenates, compared to AC3-C mice and WT littermates): significantly reduced
- cardiac CaMKII activity ([6]; whole heart homogenates, AC3-I transgenic mice vs WT littermates): significantly reduced
- Heart rate ([1]; 3 weeks after MI surgery, AC3-I transgenic compared to all other groups): significantly slower
- LV internal diameter (LVID) during diastole ([1]; 3 weeks after MI surgery): No significant differences
- LV posterior wall (LVPW) wall thickness in diastole ([1]; 3 weeks after MI surgery): No significant differences
- cardiac hypertrophy [1]: without affecting
- myocardial contractility (positive inotropic effect) [1]: increase
- Left ventricular fractional shortening ([1]; transgenically targeted AC3-I expression, after MI surgery, vs WT littermates): significantly better; also recorded: significantly greater
- activity against protein kinase C [7]: virtually devoid of activity
- heart rates [8]: no significant differences

Molecule: KLKALHAQERVDCL [AC3-C]
- Left ventricular fractional shortening ([5]; AC3-C transgenic compared to AC3-I mice): significantly depressed
- left ventricular internal diameter (LVID) in diastole ([5]; AC3-C transgenic vs AC3-I mice): significantly greater
- total CaMKII activity ([6]; AC3-C transgenic mice, FIG. 6): high
